Like-named read-outs stand apart in the source and are kept apart here.
Columns and labels:
U937 leukemia cells [1] = test: U937 cell attachment at 60 h, alone or with 10 nM PMA; type: cell-based; conditions: ligand alone
Toledo cells = test: Growth of Toledo cells; type: cell-based; conditions: 72 h; for IC50: read-out: IC50, growth inhibition of Toledo cells
PKCδ = PKCδ (Homo sapiens, UniProt Q05655); test: Downregulation of PKCδ in U937 cells; type: cell-based; conditions: 24 h
U937 leukemia cells [2] = conditions: proliferation and attachment assays; ref 12b-e; cited from earlier work
mCherry PKCδ = mCherry PKCδ (Homo sapiens, UniProt Q05655); test: Translocation of mCherry-tagged PKCδ in LNCaP cells; type: cell-based; conditions: 1 μM ligand
mCherry PKCδ, sequence (Q05655 whole entry): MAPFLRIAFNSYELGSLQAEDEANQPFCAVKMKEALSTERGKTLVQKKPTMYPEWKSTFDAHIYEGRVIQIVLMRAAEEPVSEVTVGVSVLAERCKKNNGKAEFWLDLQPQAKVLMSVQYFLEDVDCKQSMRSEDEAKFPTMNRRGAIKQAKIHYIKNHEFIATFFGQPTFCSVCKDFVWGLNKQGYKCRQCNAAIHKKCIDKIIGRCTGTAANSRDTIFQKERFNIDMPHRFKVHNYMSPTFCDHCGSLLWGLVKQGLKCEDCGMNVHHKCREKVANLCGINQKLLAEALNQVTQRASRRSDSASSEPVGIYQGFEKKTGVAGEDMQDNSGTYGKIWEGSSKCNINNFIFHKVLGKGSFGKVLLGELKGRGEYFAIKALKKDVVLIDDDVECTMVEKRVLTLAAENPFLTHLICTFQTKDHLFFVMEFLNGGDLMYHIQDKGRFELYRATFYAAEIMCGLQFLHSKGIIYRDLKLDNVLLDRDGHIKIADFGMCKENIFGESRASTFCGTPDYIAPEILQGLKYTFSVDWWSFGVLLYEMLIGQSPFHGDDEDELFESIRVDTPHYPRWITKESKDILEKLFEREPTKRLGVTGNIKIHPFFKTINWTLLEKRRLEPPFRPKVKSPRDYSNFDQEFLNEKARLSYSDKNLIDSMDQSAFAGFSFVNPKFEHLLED

PKCβII = PKCβII (Homo sapiens, UniProt P05771); test: Downregulation of PKCβII in U937 cells; type: cell-based; conditions: 24 h
PKCβII, sequence (P05771 1-673 isoform P05771-2): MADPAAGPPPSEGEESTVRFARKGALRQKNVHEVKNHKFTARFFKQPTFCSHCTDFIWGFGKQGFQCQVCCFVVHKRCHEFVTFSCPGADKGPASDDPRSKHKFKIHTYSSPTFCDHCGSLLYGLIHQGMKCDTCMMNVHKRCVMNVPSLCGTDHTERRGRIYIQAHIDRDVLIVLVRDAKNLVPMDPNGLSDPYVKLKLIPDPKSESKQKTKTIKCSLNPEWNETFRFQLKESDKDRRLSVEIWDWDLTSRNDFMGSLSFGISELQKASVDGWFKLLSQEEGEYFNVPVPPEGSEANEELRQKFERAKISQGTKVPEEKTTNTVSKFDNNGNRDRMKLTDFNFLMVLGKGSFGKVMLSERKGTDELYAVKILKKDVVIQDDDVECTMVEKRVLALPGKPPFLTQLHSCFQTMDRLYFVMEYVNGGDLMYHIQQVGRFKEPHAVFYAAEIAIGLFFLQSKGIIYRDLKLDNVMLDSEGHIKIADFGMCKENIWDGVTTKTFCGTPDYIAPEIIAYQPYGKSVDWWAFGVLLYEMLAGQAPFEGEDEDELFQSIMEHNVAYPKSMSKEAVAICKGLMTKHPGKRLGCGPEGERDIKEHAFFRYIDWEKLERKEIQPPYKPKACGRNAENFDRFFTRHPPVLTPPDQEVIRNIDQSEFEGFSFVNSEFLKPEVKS

PKCδ, sequence (Q05655 whole entry): as the sequence (Q05655 whole entry) above

Q: For `C=C1C[C@@H]2C[C@@H]3CC(=C)C[C@H](/C=C/C(C)(C)[C@]4(O)O[C@@H](C/C(=C\C(=O)OC)[C@@H]4OC(=O)/C=C/C=C/CCC)C[C@H]([C@@H](C)O)OC(=O)C[C@H](O)C[C@H](C1)O2)O3` [Merle 23], which “Effect on attachment of U937 cells” value (U937 leukemia cells [1]) is on record?
A: The value was “induced attachment”.

Q: What about the IC50 (Toledo cells) of the same molecule?
A: Its IC50 is 0.33 ± 0.11 nM.

Q: And the “Downregulation of PKCδ” value (PKCδ)?
A: Its value is “less potent than Merle 45 for downregulation but again showed no protection of PKCδ downregulation at high doses”.

Q: What about the “Pattern of biological activity in U937 cells (PMA-like or bryostatin-like)” value (U937 leukemia cells [2]) of the same molecule?
A: Its value is “largely PMA-like”.

Q: With `C=C1C[C@H]2C[C@H]3C[C@@H](OC(C)=O)C[C@@H](C[C@@H](O)CC(=O)O[C@@H]([C@@H](C)O)C[C@@H]4C/C(=C\C(=O)OC)[C@H](OC(=O)CCCCCCC)[C@@](O)(O4)C(C)(C)/C=C/[C@@H](C1)O2)O3` [Merle 27] as the molecule, how does the “Pattern of biological activity in U937 cells (PMA-like or bryostatin-like)” value (U937 leukemia cells [2]) read?
A: Its value is “PMA-like”.

Q: What does the source list for `C=C1C[C@H]2CC3(O)O[C@H](C[C@@H](O)CC(=O)O[C@@H]([C@@H](C)O)C[C@@H]4C/C(=C\C(=O)OC)[C@H](OC(=O)/C=C/C=C/CCC)[C@@](O)(O4)C(C)(C)/C=C/[C@@H](C1)O2)C[C@H](OC(C)=O)C3(C)C` [Merle 28]?
A: Effect on attachment of U937 cells (U937 leukemia cells [1]): did not inhibit proliferation (Figure 1) or induce attachment; IC50 (Toledo cells): 0.111 ± 0.009 nM; Pattern of biological activity in U937 cells (PMA-like or bryostatin-like) (U937 leukemia cells [2]): bryostatin-like

Q: With `CCCCCCCCCCCCCC(=O)O[C@@H]1[C@@H](C)[C@@]2(O)[C@@H](C=C(CO)C[C@]3(O)C(=O)C(C)=C[C@@H]23)[C@@H]2C(C)(C)[C@]12OC(C)=O` [PMA, phorbol 12-myristate 13-acetate] as the molecule, how does the “Effect on attachment of U937 cells” value (U937 leukemia cells [1]) read?
A: The value was “induced attachment”.

Q: And the “Effect on Toledo cell growth” value (Toledo cells)?
A: Its value is “inhibited Toledo cell growth”.

Q: What about the IC50 (Toledo cells; Homo sapiens, Toledo) of the same molecule?
A: Its IC50 is 0.57 ± 0.27 nM.

Q: What about the “Translocation of PKCδ” value (mCherry PKCδ) of the same molecule?
A: Its value is “characteristic translocation of PKCδ to the plasma and nuclear membranes, as well as to internal membranes”.

Q: What about the “Downregulation of PKCβII” value (PKCβII) of the same molecule?
A: The value was “downregulated PKCβII at 24 h”.

Q: Which results are given for `CCC/C=C/C=C/C(=O)O[C@H]1/C(=C/C(=O)OC)C[C@H]2C[C@H]([C@@H](C)O)OC(=O)C[C@H](O)C[C@@H]3C[C@H](OC(C)=O)C(C)(C)[C@](O)(C[C@@H]4C/C(=C/C(=O)OC)C[C@H](/C=C/C(C)(C)[C@]1(O)O2)O4)O3` [bryostatin 1]?
A: Effect on attachment of U937 cells (U937 leukemia cells [1]): did not inhibit proliferation (Figure 1) or induce attachment; Effect on Toledo cell growth (Toledo cells): inhibited Toledo cell growth; IC50 (Toledo cells; Homo sapiens, Toledo): 0.091 ± 0.026 nM

— article PMC6980389 (Chembiochem : a European journal of chemical biology, 2018)
